In US20230340127A1, “METHODS AND COMPOSITIONS FOR CANCER TREATMENT BY INHIBITION OF FBXO44” (Sanford Burnham Prebys Medical Discovery Institute, priority 2022, published 2023):

Tested on: MDA-MB-231 or 4T1 cells
Test: qRT-PCR of endogenous retroelements, IFN-α/β, ISGs and PD-L1 in F5446-treated cells
Type: cell-based
Conditions: cancer cells (MDA-MB-231, 4T1), qRT-PCR (FIGS. 10F-10G)
Protocol: Quantitative (q)RT-PCR: total RNA was isolated using the RNeasy Plus Mini Kit (Qiagen no. 74134). cDNA was synthesized using qScript cDNA SuperMix (Quantabio no. 95048) following the manufacturer's instructions. qPCR reactions were performed using SYBR Select Master Mix (Thermo Fisher Scientific no. 4472908) and a Stratagene Mx3000P instrument (Agilent Technologies). Thermal cycling conditions included an initial denaturation step of 95° C. for 10 min and 40 cycles at 95° C. for 15 sec and 60° C. for 60 sec. Analyses were carried out in triplicate for each data point. The qPCR primers used for gene expression analysis of human REs and genes included MajSAT-[…] (SEQ ID NO: 1) and […] (SEQ ID NO: 2), mcBox-[…] (SEQ ID NO: 3) and […] (SEQ ID NO: 4), SATIII-[…] (SEQ ID NO: 5) and […] (SEQ ID NO: 6), Alu-[…] (SEQ ID NO: 7) and […] (SEQ ID NO: 8), L1 ORF1-TGGCCCCCACTCTCTTCT (SEQ ID NO: 18) and […] (SEQ ID NO: 19), L1 ORF2-[…] (SEQ ID NO: 20) and […] (SEQ ID NO: 21), L1 5′-UTR-AAGCAAGCCTGGGCAATG (SEQ ID NO: 22) and […] (SEQ ID NO: 23), HERV-E-[…] (SEQ ID NO: 24) and GCAGCCTAGGTCTCTGG (SEQ ID NO: 25), HERV-F-CCTCCAGTCACAACAACTC (SEQ ID NO: 26) and TATTGAAGAAGGCGGCTGG (SEQ ID NO: 27), HERV-K-[…] (SEQ ID NO: 28) and […] (SEQ ID NO: 29), ERVL-[…] (SEQ ID NO: 30) and […] (SEQ ID NO: 31), GAPDH-[…] (SEQ ID NO: 32) and […] (SEQ ID NO: 33), FBXO44-[…] (SEQ ID NO: 34) and […] (SEQ ID NO: 35), SUV39H1-[…] […]

`COC(=O)c1cc2c(n1S(=O)(=O)c1ccc(Cl)cc1)C(=O)C(=O)c1[nH]cc(C(=O)OCc3ccccc3)c1-2` [F5446] was tested, and the “expression of various REs and IFN signaling” value was “activated”.
